Laboratory results from patent US20260242365A1, “USES OF CERTAIN 1,4-OXAZEPANE-2-CARBOXAMIDES AS DPP1 INHIBITORS” (Insmed Incorporated, priority 2023, published 2026).

Target: T1, mouse DPP1 (Mus musculus, UniProt P97821)
T1 construct: Test articles were applied to active mouse DPP1 enzyme; purchased R&D Systems
Assay: Mouse DPP1 Enzyme IC50 Assay
Assay type: biochemical
Settings: active mouse DPP1 enzyme, H-Gly-Arg-AMC substrate
Procedure: Test articles were applied to active mouse DPP1 enzyme (R&D Systems; Minneapolis, MN) in Assay Buffer (50 mM MES pH 5.5, 50 mM NaCl, 5 mM DTT) in a total reaction volume of 125 μL. 25 μL of compound in Assay Buffer plus 5% DMSO was first added to 50 μL of active mouse DPP1 enzyme at a concentration of […] and allowed to pre-incubate for 10 minutes at 37° C. after which 50 μL of 1000 μM H-Gly-Arg-AMC substrate (Bachem; St. Torrance, CA) was added, giving final substrate concentration of 400 μM and a final DMSO concentration of 1%. Substrate cleavage was measured for 90 minutes at 37° C., with fluorescence at Excitation/Emission 350/450 nm measured every 5 minutes. DPP1 concentration was interpolated based on its activity relative to a standard curve of recombinant active mouse DPP1 enzyme. IC50 values for each compound were calculated via the XLFit (IDBS Version 5.3.1.3) Add-On to Microsoft Excel using the four parameter fit equation y= (A+ ((B−A)/(1+ ((C/x)^D)))), which appears as equation number 205 (4 Parameter Logistic Model or Sigmoidal Dose-Response Model) in XLFit. Default constraints were used for each Parameter. IC50 was defined as the compound concentration at which 50% of enzyme activity was inhibited when compared to the no-compound control.

T1 sequence (P97821 25-134 limits assumed): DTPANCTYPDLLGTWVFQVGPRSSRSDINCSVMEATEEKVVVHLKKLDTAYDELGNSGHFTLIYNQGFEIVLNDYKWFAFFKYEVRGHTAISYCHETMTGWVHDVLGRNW
T1 sequence (P97821 231-393 limits assumed): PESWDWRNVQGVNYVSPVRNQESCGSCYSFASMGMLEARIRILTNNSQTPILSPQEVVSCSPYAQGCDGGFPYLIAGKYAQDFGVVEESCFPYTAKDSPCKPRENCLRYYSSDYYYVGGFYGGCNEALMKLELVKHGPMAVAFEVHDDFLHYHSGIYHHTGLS
T1 sequence (P97821 394-462 limits assumed): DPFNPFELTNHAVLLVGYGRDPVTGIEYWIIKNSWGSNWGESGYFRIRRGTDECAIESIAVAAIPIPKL

An IC50 of 5.6 ± 0.4 nM was found for `Cn1c(=O)oc2ccc(-c3ccc(C[C@@H](C#N)NC(=O)[C@@H]4CNCCCO4)c(F)c3)cc21` [INSM-204] in this work.
